Measurements published in patent US10280188B2, “Fluorine-containing bisphosphonic acid derivative and use thereof” (NAGASAKI UNIVERSITY, priority 2015, dated 2019).
Like-named read-outs stand apart in the source and are kept apart here.

Experiments:
[1] = system: human histiocytic tumor cell line U937; test: CD107a expression of Vδ2 positive γδ T cells on compound-treated U937 cells (flow cytometry); assay type: cell-based; details: U937 treated 2 hr; Vδ2 positive γδ T cells from normal adult (1)
Method: Furthermore, PE-labeled anti-human CD107a monoclonal antibody (5 μL) was added, and the mixture was incubated at 37° C. for 2 hr. Thereto was added FITC-labeled anti-human Vδ2 monoclonal antibody (2 μL), and the mixture was incubated on ice for 20 min. This was washed 3 times with 2% FCS-added PBS, and suspended in 200 μL of 2% FCS-added PBS.

[2] = system: human histiocytic tumor cell line U937; test: Specific cytotoxicity of Vδ2 positive γδ T cells on compound-treated U937 (time-resolved fluorescence)
Method: A dilution series of 0 μM, 100 μM, 300 μM, 1000 μM was prepared for ZOLF.
A dilution series of 0 μM, 300 μM, 1000 μM, 3000 μM was prepared for ALEF.
A dilution series of 0 μM, 300 μM, 1000 μM, 3000 μM was prepared for PAMF.
A dilution series of 0 μM, 300 μM, 1000 μM, 3000 μM was prepared for IBAF.

[3] = system: Vδ2 positive γδ T cells in peripheral blood mononuclear cells of adult T cell leukemia patients; test: Induction of Vδ2 positive γδ T cell proliferation from peripheral blood mononuclear cells of adult T cell leukemia patients (FACS); assay type: cell-based, human; details: ZOLF-POM 1 μM, cultured 11 days with IL-2
Method: (§1) Heparin blood samples (peripheral blood 10 mL) were collected from adult T cell leukemia patients (1), and diluted with 10 mL of PBS. This was overlaid on 20 mL of Ficoll-Paque and subjected to density gradient centrifugation at 600×g for 30 min at room temperature. The layer directly above Ficoll-Paque was recovered, and washed 3 times with PBS to give peripheral blood mononuclear cells. The cells were suspended in 7 mL of Yssel medium, 1 mL therefrom was stained with PE-labeled anti-human CD3 monoclonal antibody and FITC-labeled anti-human Vδ2 monoclonal antibody, and analyzed by flow cytometer. As a result, as shown in the panel on the left side in FIG. 2, Vδ2 positive γδ T cells accounted for 0.75% of lymphocyte gate. […] As a result, as shown in the panel on the right side in FIG. 2, Vδ2 positive γδ T cells accounted for 91.48% of lymphocyte gate.
as §1, with “(2),” for “(1),”, “3,” for “2,”, “1.58%” for “0.75%”, “96.83%” for “91.48%”
(§2) Heparin blood samples (peripheral blood 10 mL) were collected from adult T cell leukemia patients (3), and diluted with 10 mL of PBS. […] The cells were suspended in 7 mL of Yssel medium, 1 mL therefrom was stained with PE-labeled anti-human CD3 monoclonal antibody and FITC-labeled anti-human Vδ2 monoclonal antibody, and analyzed by flow cytometer. […]

[4] = system: Vδ2 positive γδ T cells in peripheral blood mononuclear cells of lung cancer patients; test: Induction of Vδ2 positive γδ T cell proliferation from peripheral blood mononuclear cells of lung cancer patients (FACS); assay type: cell-based, human; details: ZOLF-POM 1 μM, cultured 11 days with IL-2
Method: as §1, with “collected from lung cancer patients (1),” for “collected from adult T cell leukemia patients (1),”, “with 10 ml of PBS.” for “with 10 mL of PBS.”, “in FIG. 5, Vδ2 positive” for “in FIG. 2, Vδ2 positive”, “accounted for 4.14% of lymphocyte” for “accounted for 0.75% of lymphocyte”, “accounted for 98.59% of lymphocyte” for “accounted for 91.48% of lymphocyte”
as §2, with “lung cancer” for “adult T cell leukemia”, “(2),” for “(3),”, “PBS. This was overlaid on 20 mL of Ficoll-Paque and subjected to density gradient centrifugation at 600×g for 30 min at room temperature.” for “PBS.”

[5] = system: human bladder cancer cell line EJ-1; test: Specific cytotoxicity of Vδ2 positive γδ T cells on compound-treated EJ-1 (time-resolved fluorescence); details: γδ T cells from normal adult (1), E/T 0:1-40:1
Method: Human bladder cancer cell line EJ-1 cells were suspended in RPMI1640 medium at a cell concentration of 1×10^6/mL, and dispensed by 1 mL to a 15 mL conical tube. This was centrifuged at 600×g for 5 min, and the supernatant was removed. […] The compound solutions of the dilution series were added by 1 mL to the cell pellets after removal of the supernatant and incubated at 37° C. for 1 hr 45 min. Thereto was added 10 mM lanthanoid metal chelating agent by 2.5 μL, and the mixture was further incubated for 15 min. These conical tubes were centrifuged at 600×g for 5 min, and the cell pellets were washed 3 times with RPMI1640 medium. Then, the cell pellets were suspended in 5 mL of RPMI1640 medium, 2 mL therefrom was placed in a different conical tube, and 6 mL of RPMI1640 medium was further added. The cell suspension was seeded by 100 μL in a 96 well round bottom plate. Vδ2 positive γδ T cells derived from normal adult (1) were reacted at an effector cell/target cell ratio of 0:1, 5:1, 10:1, 20:1, 40:1, and incubated for 40 min at 37° C. The plate was centrifuged at 600×g for 2 min, 25 μL of culture supernatant was taken, and diluted with 200 μL of europium-added acetate buffer. The mixture was taken by 200 μL, and time-resolved fluorescence was measured.

[6] = system: adult T cell leukemia cell line HCT-4; test: Specific cytotoxicity of Vδ2 positive γδ T cells on compound-treated HCT-4 (time-resolved fluorescence); details: γδ T cells from adult T cell leukemia patients (4), E/T 1.25:1-80:1, 1 and 10 μM tested
Method: Adult T cell leukemia cell line HCT-4 cells were suspended in RPMI1640 medium at a cell concentration of 1×10^6/mL, and dispensed by 1 mL to a 15 mL conical tube. This was centrifuged at 600×g for 5 min, and the supernatant was removed. […] Thereto was added 10 mM lanthanoid metal chelating agent by 2.5 μL, and the mixture was further incubated for 15 min. These conical tubes were centrifuged at 600×g for 5 min, and the cell pellets were washed 3 times with RPMI1640 medium. Then, the cell pellets were suspended in 5 mL of RPMI1640 medium, 2 mL therefrom was placed in a different conical tube, and 6 mL of RPMI1640 medium was further added. The cell suspension was seeded by 100 μL in a 96 well round bottom plate. […] The plate was centrifuged at 600×g for 2 min, 25 μL of culture supernatant was taken, and diluted with 200 μL of europium-added acetate buffer. The mixture was taken by 200 μL, and time-resolved fluorescence was measured.

[7] = U937, γδ T cells from normal adult (1), E/T 0:1-40:1

## NCCCC(F)(P(=O)(O)O)P(=O)(O)O [ALEF, 4-amino-1-fluoro-butylidene-1,1-bisphosphonic acid]
[1]
  compound concentration that induces maximum CD107a expression: several hundred
[2]; [7]
  concentration at which sensitivity to cytotoxicity activity of Vδ2 positive γδ T cells is promoted: at least 300 μM

## CCCCCN(C)CCC(F)(P(=O)(O)O)P(=O)(O)O [IBAF, 1-fluoro-3-(methyl(pentyl)amino)propylidene-1,1-bisphosphonic acid]
[2]
  concentration at which sensitivity to cytotoxicity activity of Vδ2 positive γδ T cells is promoted: at least 300 μM

## NCCC(F)(P(=O)(O)O)P(=O)(O)O [PAMF, 3-amino-1-fluoro-propylidene-1,1-bisphosphonic acid]
[1]
  compound concentration that induces maximum CD107a expression: several hundred
[2]; [7]
  concentration at which sensitivity to cytotoxicity activity of Vδ2 positive γδ T cells is promoted: at least 300 μM

## O=P(O)(O)C(F)(Cn1ccnc1)P(=O)(O)O [ZOLF, 1-fluoro-(2-imidazoyl-1-ethylidene)-1,1-bisphosphonic acid]
[1]
  compound concentration that induces maximum CD107a expression: several hundred

## CC(C)(C)C(=O)OCOP(=O)(OCOC(=O)C(C)(C)C)C(F)(Cn1ccnc1)P(=O)(OCOC(=O)C(C)(C)C)OCOC(=O)C(C)(C)C [ZOLF-POM, tetrakispivaloyloxymethyl-1-fluoro-2-(1H-imidazoyl-1-ethylidene)-1,1-bisphosphonate]
[3]; adult T cell leukemia patient (1), 0.75% before culture
  Vδ2 positive γδ T cells, proportion of lymphocyte gate: 91.48%
[3]; adult T cell leukemia patient (2), 1.58% before culture
  Vδ2 positive γδ T cells, proportion of lymphocyte gate: 96.83%
[3]; adult T cell leukemia patient (3), 0.49% before culture
  Vδ2 positive γδ T cells, proportion of lymphocyte gate: 98.29%
[4]; lung cancer patient (1), 4.14% before culture
  Vδ2 positive γδ T cells, proportion of lymphocyte gate: 98.59%
[4]; lung cancer patient (2), 1.95% before culture
  Vδ2 positive γδ T cells, proportion of lymphocyte gate: 95.72%
[1]
  compound concentration that induces maximum CD107a expression: about 100 nM
[5]
  concentration at which sensitivity to cytotoxicity activity of Vδ2 positive γδ T cells is promoted: at least 1.25 μM
[6]
  concentration at which sensitivity to cytotoxicity activity of Vδ2 positive γδ T cells is promoted: at least 1 μM
